Results reported in PubChem BioAssay (NCI).
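Protocol summary: plate cells (96-well), add compound at 5 concentrations, incubate 48 h, interpolate endpoints linearly. TGI marks complete inhibition of growth.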

Experiments:
Experiment in all cases: NCI-60 cell line screen, 48 h
HS 578T breast = test system: HS 578T breast
SK-MEL-28 melanoma = test system: SK-MEL-28 melanoma
IGROV1 ovarian = test system: IGROV1 ovarian
PC-3 prostate = test system: PC-3 prostate
M14 melanoma = test system: M14 melanoma
SF-268 CNS = test system: SF-268 CNS
NCI-H522 lung = test system: NCI-H522 lung
SF-295 CNS = test system: SF-295 CNS
HCC-2998 colon = test system: HCC-2998 colon
A549 NSCLC = test system: A549 NSCLC
MDA-N = test system: MDA-N
OVCAR-5 ovarian = test system: OVCAR-5 ovarian
BT-549 breast = test system: BT-549 breast
COLO 205 colon = test system: COLO 205 colon
HOP-62 NSCLC = test system: HOP-62 NSCLC
SNB-19 CNS = test system: SNB-19 CNS
HCT-15 colon = test system: HCT-15 colon
ACHN renal = test system: ACHN renal
EKVX NSCLC = test system: EKVX NSCLC
OVCAR-3 ovarian = test system: OVCAR-3 ovarian
MOLT-4 leukemia = test system: MOLT-4 leukemia
SK-OV-3 ovarian = test system: SK-OV-3 ovarian
LOX IMVI melanoma = test system: LOX IMVI melanoma
HCT-116 colon = test system: HCT-116 colon
NCI-H226 lung = test system: NCI-H226 lung
U251 CNS = test system: U251 CNS
DU-145 prostate = test system: DU-145 prostate
MDA-MB-435 = test system: MDA-MB-435
UO-31 renal = test system: UO-31 renal
SK-MEL-2 melanoma = test system: SK-MEL-2 melanoma
TK-10 renal = test system: TK-10 renal
NCI-H23 lung = test system: NCI-H23 lung
HT29 colon = test system: HT29 colon
RXF 393 renal = test system: RXF 393 renal
MDA-MB-231 breast = test system: MDA-MB-231 breast
OVCAR-8 ovarian = test system: OVCAR-8 ovarian
NCI-H460 lung = test system: NCI-H460 lung
OVCAR-4 ovarian = test system: OVCAR-4 ovarian
CCRF-CEM leukemia = test system: CCRF-CEM leukemia
HL-60(TB) leukemia = test system: HL-60(TB) leukemia
UACC-62 melanoma = test system: UACC-62 melanoma
CAKI-1 renal = test system: CAKI-1 renal
A498 renal = test system: A498 renal
KM12 colon = test system: KM12 colon
SNB-75 CNS = test system: SNB-75 CNS
NCI/ADR-RES ovarian = test system: NCI/ADR-RES ovarian
MCF7 breast = test system: MCF7 breast
RPMI-8226 leukemia = test system: RPMI-8226 leukemia
HOP-92 NSCLC = test system: HOP-92 NSCLC
786-0 renal = test system: 786-0 renal
UACC-257 melanoma = test system: UACC-257 melanoma
SK-MEL-5 melanoma = test system: SK-MEL-5 melanoma
SW-620 colon = test system: SW-620 colon
K-562 leukemia = test system: K-562 leukemia
SN12C renal = test system: SN12C renal
MALME-3M melanoma = test system: MALME-3M melanoma

CN1C(=O)C(C#N)C2C[C@@]1(C)Oc1ccccc12 (stereo partly drawn)
TGI (HS 578T breast): > 100 µM | TGI (SK-MEL-28 melanoma): > 100 µM | TGI (IGROV1 ovarian): > 100 µM | TGI (PC-3 prostate): > 100 µM | TGI (M14 melanoma): > 100 µM | TGI (SF-268 CNS): > 100 µM | TGI (NCI-H522 lung): > 100 µM | TGI (SF-295 CNS): > 100 µM | TGI (HCC-2998 colon): > 100 µM | TGI (A549 NSCLC): > 100 µM | TGI (MDA-N): > 100 µM | TGI (OVCAR-5 ovarian): > 100 µM | TGI (BT-549 breast): > 100 µM | TGI (COLO 205 colon): > 100 µM | TGI (HOP-62 NSCLC): > 100 µM | TGI (SNB-19 CNS): > 100 µM | TGI (HCT-15 colon): > 100 µM | TGI (ACHN renal): > 100 µM | TGI (EKVX NSCLC): > 100 µM | TGI (OVCAR-3 ovarian): > 100 µM | TGI (MOLT-4 leukemia): > 100 µM | TGI (SK-OV-3 ovarian): > 100 µM | TGI (LOX IMVI melanoma): > 100 µM | TGI (HCT-116 colon): > 100 µM | TGI (NCI-H226 lung): > 100 µM | TGI (U251 CNS): > 100 µM | TGI (DU-145 prostate): > 100 µM | TGI (MDA-MB-435): > 100 µM | TGI (UO-31 renal): > 100 µM | TGI (SK-MEL-2 melanoma): > 100 µM | TGI (TK-10 renal): > 100 µM | TGI (NCI-H23 lung): > 100 µM | TGI (HT29 colon): > 100 µM | TGI (RXF 393 renal): > 100 µM | TGI (MDA-MB-231 breast): > 100 µM | TGI (OVCAR-8 ovarian): > 100 µM | TGI (NCI-H460 lung): > 100 µM | TGI (OVCAR-4 ovarian): > 100 µM | TGI (CCRF-CEM leukemia): > 100 µM | TGI (HL-60(TB) leukemia): > 100 µM | TGI (UACC-62 melanoma): > 100 µM | TGI (CAKI-1 renal): > 100 µM | TGI (A498 renal): > 100 µM | TGI (KM12 colon): > 100 µM | TGI (SNB-75 CNS): > 100 µM | TGI (NCI/ADR-RES ovarian): > 100 µM | TGI (MCF7 breast): > 100 µM | TGI (RPMI-8226 leukemia): > 100 µM | TGI (HOP-92 NSCLC): > 100 µM | TGI (786-0 renal): > 100 µM | TGI (UACC-257 melanoma): > 100 µM | TGI (SK-MEL-5 melanoma): > 100 µM | TGI (SW-620 colon): > 100 µM | TGI (K-562 leukemia): > 100 µM

Oc1ccc2ccccc2c1NCn1nc(CCCCCCCCc2nn(CNc3c(O)ccc4ccccc34)c(=S)o2)oc1=S
TGI (SK-MEL-28 melanoma): > 100 µM | TGI (IGROV1 ovarian): > 100 µM | TGI (PC-3 prostate): > 100 µM | TGI (M14 melanoma): > 100 µM | TGI (SF-268 CNS): > 100 µM | TGI (NCI-H522 lung): > 100 µM | TGI (SF-295 CNS): > 100 µM | TGI (HCC-2998 colon): > 100 µM | TGI (A549 NSCLC): > 100 µM | TGI (SN12C renal): > 100 µM | TGI (MDA-N): > 100 µM | TGI (OVCAR-5 ovarian): > 100 µM | TGI (BT-549 breast): > 100 µM | TGI (COLO 205 colon): > 100 µM | TGI (HOP-62 NSCLC): > 100 µM | TGI (SNB-19 CNS): > 100 µM | TGI (HCT-15 colon): > 100 µM | TGI (ACHN renal): > 100 µM | TGI (EKVX NSCLC): > 100 µM | TGI (MOLT-4 leukemia): > 100 µM | TGI (SK-OV-3 ovarian): > 100 µM | TGI (HCT-116 colon): 79.4 µM | TGI (NCI-H226 lung): > 100 µM | TGI (U251 CNS): > 100 µM | TGI (DU-145 prostate): > 100 µM | TGI (MDA-MB-435): > 100 µM | TGI (UO-31 renal): > 100 µM | TGI (SK-MEL-2 melanoma): > 100 µM | TGI (TK-10 renal): > 100 µM | TGI (NCI-H23 lung): > 100 µM | TGI (HT29 colon): > 100 µM | TGI (MDA-MB-231 breast): > 100 µM | TGI (NCI-H460 lung): > 100 µM | TGI (OVCAR-4 ovarian): > 100 µM | TGI (UACC-62 melanoma): > 100 µM | TGI (CAKI-1 renal): > 100 µM | TGI (A498 renal): > 100 µM | TGI (KM12 colon): > 100 µM | TGI (SNB-75 CNS): > 100 µM | TGI (NCI/ADR-RES ovarian): > 100 µM | TGI (MCF7 breast): > 100 µM | TGI (RPMI-8226 leukemia): > 100 µM | TGI (HOP-92 NSCLC): > 100 µM | TGI (786-0 renal): > 100 µM | TGI (MALME-3M melanoma): > 100 µM | TGI (UACC-257 melanoma): > 100 µM | TGI (SK-MEL-5 melanoma): > 100 µM | TGI (SW-620 colon): > 100 µM | TGI (K-562 leukemia): > 100 µM
